Columns and labels:
Assay type in all cases: in vivo
[1] = tested on: barnyardgrass (Echinochloa crus-galli); assay: Test B flooded paddy test plant response
Source text: (§1) Plant species in the flooded paddy test consisted of rice (Oryza sativa), umbrella sedge (Cyperus difformis), ducksalad (Heteranthera limosa) and barnyardgrass (Echinochloa crus-galli) grown to the 2-leaf stage for testing. At time of treatment, test pots were flooded to 3 cm above the soil surface, treated by application of test compounds directly to the paddy water, and then maintained at that water depth for the duration of the test. Treated plants and controls were maintained in a greenhouse for 13 to 15 days, after which time all species were compared to controls and visually evaluated. Plant response ratings, summarized in Table B, are based on a scale of 0 to 100 where 0 is no effect and 100 is complete control. A dash (-) response means no test result.

[2] = tested on: umbrella sedge (Cyperus difformis); assay: Test B flooded paddy test plant response
Source text: as §1

[3] = tested on: ducksalad (Heteranthera limosa); assay: Test B flooded paddy test plant response
Source text: as §1

rice (Oryza sativa) = assay: Test B flooded paddy test plant response
Source text: as §1

[4] = tested on: giant foxtail (Setaria faberi); assay: Test A pre-/postemergence plant response
Source text: (§2) Seeds of species selected from barnyardgrass (Echinochloa crus-galli), large crabgrass (Digitaria sanguinalis), giant foxtail (Setaria faberi), blackgrass (Alopecurus myosuroides), canarygrass (Phalaris minor), morningglory (Ipomoea coccinea), pigweed (Amaranthus retroflexus), velvetleaf (Abutilon theophrasti), wheat (Triticum aestivum), and corn (Zea mays) were planted into a blend of loam soil and sand and treated preemergence with a directed soil spray using test chemicals formulated in a non-phytotoxic solvent mixture which included a surfactant. At the same time these species were also treated with postemergence applications of test chemicals formulated in the same manner.
(§3) Plants ranged in height from 2 to 10 cm and were in the one- to two-leaf stage for the postemergence treatment. Treated plants and untreated controls were maintained in a greenhouse for approximately 10 days, after which time all treated plants were compared to untreated controls and visually evaluated for injury. Plant response ratings, summarized in Table A, are based on a 0 to 100 scale where 0 is no effect and 100 is complete control. A dash (-) response means no test results.

[5] = tested on: wheat (Triticum aestivum); assay: Test A pre-/postemergence plant response
Source text: as §2, §3

[6] = tested on: barnyardgrass (Echinochloa crus-galli); assay: Test A pre-/postemergence plant response
Source text: as §2, §3

[7] = tested on: large crabgrass (Digitaria sanguinalis); assay: Test A pre-/postemergence plant response
Source text: as §2, §3

[8] = tested on: pigweed (Amaranthus retroflexus); assay: Test A pre-/postemergence plant response
Source text: as §2, §3

corn (Zea mays) = assay: Test A pre-/postemergence plant response
Source text: as §2, §3

[9] = tested on: velvetleaf (Abutilon theophrasti); assay: Test A pre-/postemergence plant response
Source text: as §2, §3

[10] = tested on: morningglory (Ipomoea coccinea); assay: Test A pre-/postemergence plant response
Source text: as §2, §3

[11] = Flood (flooded paddy test), 62 g ai/ha, scale 0 to 100, 0 no effect, 100 complete control
[12] = Flood (flooded paddy test), 125 g ai/ha, scale 0 to 100, 0 no effect, 100 complete control
[13] = Flood (flooded paddy test), 250 g ai/ha, scale 0 to 100, 0 no effect, 100 complete control
[14] = Flood, 31 g ai/ha, scale 0 to 100
[15] = Postemergence, 125 g ai/ha, 0 to 100 scale, 0 no effect, 100 complete control
[16] = Postemergence, 500 g ai/ha, 0 to 100 scale, 0 no effect, 100 complete control
[17] = Preemergence, 125 g ai/ha, 0 to 100 scale (0 no effect, 100 complete control)
[18] = Preemergence, 500 g ai/ha, 0 to 100 scale (0 no effect, 100 complete control)
[19] = Postemergence, 31 g ai/ha, 0 to 100 scale (0 no effect, 100 complete control)
[20] = Preemergence, 31 g ai/ha, 0 to 100 scale, 0 is no effect, 100 is complete control
[21] = Postemergence, 62 g ai/ha, 0 to 100 scale, 0 no effect, 100 complete control
[22] = Postemergence, 250 g ai/ha, 0 to 100 scale, 0 no effect, 100 complete control
[23] = Preemergence, 62 g ai/ha, 0 to 100 scale, 0 no effect, 100 complete control
[24] = Preemergence, 250 g ai/ha, 0 to 100 scale (0 no effect, 100 complete control)

Cc1cc(-c2ccc(OC(F)(F)F)cc2)nn1-c1c(OC(=O)OC(C)C)cnn(C)c1=O [Compound 13]
Plant response rating, Barnyardgrass [1, 11]: 0
Plant response rating, Barnyardgrass [1, 12]: 0
Plant response rating, Barnyardgrass [1, 13]: 0
Plant response rating, Barnyardgrass [1, 14]: 0
Plant response rating, Sedge, Umbrella [2, 11]: 0
Plant response rating, Sedge, Umbrella [2, 12]: 0
Plant response rating, Sedge, Umbrella [2, 13]: 0
Plant response rating, Sedge, Umbrella [2, 14]: 0
Plant response rating, Ducksalad [3, 11]: 0
Plant response rating, Ducksalad [3, 12]: 0
Plant response rating, Ducksalad [3, 13]: 0
Plant response rating, Ducksalad [3, 14]: 0
Plant response rating, Rice (rice (Oryza sativa); [11]): 0
Plant response rating, Rice (rice (Oryza sativa); [12]): 0
Plant response rating, Rice (rice (Oryza sativa); [13]): 0
Plant response rating, Rice (rice (Oryza sativa); [14]): 0
Plant response rating, Foxtail, Giant [4, 15]: 70
Plant response rating, Foxtail, Giant [4, 16]: 80
Plant response rating, Foxtail, Giant [4, 17]: 70
Plant response rating, Foxtail, Giant [4, 18]: 100
Plant response rating, Wheat [5, 15]: 50
Plant response rating, Wheat [5, 16]: 60
Plant response rating, Wheat [5, 17]: 20
Plant response rating, Wheat [5, 18]: 70
Plant response rating, Barnyardgrass [6, 15]: 50
Plant response rating, Barnyardgrass [6, 16]: 90
Plant response rating, Barnyardgrass [6, 17]: 60
Plant response rating, Barnyardgrass [6, 18]: 100
Plant response rating, Crabgrass, Large [7, 15]: 20
Plant response rating, Crabgrass, Large [7, 16]: 80
Plant response rating, Crabgrass, Large [7, 17]: 60
Plant response rating, Crabgrass, Large [7, 18]: 90
Plant response rating, Pigweed [8, 15]: 0
Plant response rating, Pigweed [8, 16]: 0
Plant response rating, Pigweed [8, 17]: 0
Plant response rating, Pigweed [8, 18]: 0
Plant response rating, Corn (corn (Zea mays); [15]): 30
Plant response rating, Corn (corn (Zea mays); [16]): 60
Plant response rating, Corn (corn (Zea mays); [17]): 20
Plant response rating, Corn (corn (Zea mays); [18]): 70
Plant response rating, Velvetleaf [9, 15]: 0
Plant response rating, Velvetleaf [9, 16]: 0
Plant response rating, Velvetleaf [9, 17]: 0
Plant response rating, Velvetleaf [9, 18]: 20
Plant response rating, Morningglory [10, 15]: 0
Plant response rating, Morningglory [10, 16]: 0
Plant response rating, Morningglory [10, 17]: 0
Plant response rating, Morningglory [10, 18]: 0

Cn1ncc(O)c(-c2nn(-c3ccc(C(F)(F)F)cn3)cc2Br)c1=O [Compound 71]
Plant response rating, Foxtail, Giant [4, 19]: 30
Plant response rating, Foxtail, Giant [4, 15]: 90
Plant response rating, Foxtail, Giant [4, 20]: 0
Plant response rating, Foxtail, Giant [4, 17]: 100
Plant response rating, Wheat [5, 19]: 0
Plant response rating, Wheat [5, 15]: 80
Plant response rating, Wheat [5, 20]: 0
Plant response rating, Wheat [5, 17]: 50
Plant response rating, Barnyardgrass [6, 19]: 10
Plant response rating, Barnyardgrass [6, 15]: 90
Plant response rating, Barnyardgrass [6, 20]: 0
Plant response rating, Barnyardgrass [6, 17]: 40
Plant response rating, Crabgrass, Large [7, 19]: 20
Plant response rating, Crabgrass, Large [7, 15]: 80
Plant response rating, Crabgrass, Large [7, 20]: 10
Plant response rating, Crabgrass, Large [7, 17]: 60
Plant response rating, Pigweed [8, 19]: 0
Plant response rating, Pigweed [8, 15]: 0
Plant response rating, Pigweed [8, 20]: 0
Plant response rating, Pigweed [8, 17]: 0
Plant response rating, Corn (corn (Zea mays); [19]): 0
Plant response rating, Corn (corn (Zea mays); [15]): 40
Plant response rating, Corn (corn (Zea mays); [20]): 0
Plant response rating, Corn (corn (Zea mays); [17]): 20
Plant response rating, Velvetleaf [9, 19]: 0
Plant response rating, Velvetleaf [9, 15]: 0
Plant response rating, Velvetleaf [9, 20]: 0
Plant response rating, Velvetleaf [9, 17]: 0
Plant response rating, Morningglory [10, 19]: 0
Plant response rating, Morningglory [10, 15]: 0
Plant response rating, Morningglory [10, 20]: 0
Plant response rating, Morningglory [10, 17]: 0

CCc1cc(-c2ccc(C(F)(F)F)cc2)nn1-c1c(OC(=O)C(C)(C)C)cnn(C)c1=O [Compound 18]
Plant response rating, Foxtail, Giant [4, 21]: 90
Plant response rating, Foxtail, Giant [4, 22]: 100
Plant response rating, Foxtail, Giant [4, 23]: 100
Plant response rating, Foxtail, Giant [4, 24]: 100
Plant response rating, Wheat [5, 21]: 70
Plant response rating, Wheat [5, 22]: 80
Plant response rating, Wheat [5, 23]: 90
Plant response rating, Wheat [5, 24]: 100
Plant response rating, Barnyardgrass [6, 21]: 90
Plant response rating, Barnyardgrass [6, 22]: 100
Plant response rating, Barnyardgrass [6, 23]: 100
Plant response rating, Barnyardgrass [6, 24]: 100
Plant response rating, Crabgrass, Large [7, 21]: 80
Plant response rating, Crabgrass, Large [7, 22]: 100
Plant response rating, Crabgrass, Large [7, 23]: 100
Plant response rating, Crabgrass, Large [7, 24]: 100
Plant response rating, Pigweed [8, 21]: 0
Plant response rating, Pigweed [8, 22]: 0
Plant response rating, Pigweed [8, 23]: 0
Plant response rating, Pigweed [8, 24]: 0
Plant response rating, Corn (corn (Zea mays); [21]): 80
Plant response rating, Corn (corn (Zea mays); [22]): 90
Plant response rating, Corn (corn (Zea mays); [23]): 90
Plant response rating, Corn (corn (Zea mays); [24]): 90
Plant response rating, Velvetleaf [9, 21]: 0
Plant response rating, Velvetleaf [9, 22]: 0
Plant response rating, Velvetleaf [9, 23]: 0
Plant response rating, Velvetleaf [9, 24]: 0
Plant response rating, Morningglory [10, 21]: 0
Plant response rating, Morningglory [10, 22]: 0
Plant response rating, Morningglory [10, 23]: 0
Plant response rating, Morningglory [10, 24]: 0

Cc1nc(-c2ccc(C(F)(F)F)cc2)sc1-c1c(O)cnn(C)c1=O [Compound 24]
Plant response rating, Foxtail, Giant [4, 15]: 0
Plant response rating, Foxtail, Giant [4, 16]: 40
Plant response rating, Foxtail, Giant [4, 17]: 0
Plant response rating, Foxtail, Giant [4, 18]: 80
Plant response rating, Wheat [5, 15]: 0
Plant response rating, Wheat [5, 16]: 20
Plant response rating, Wheat [5, 17]: 0
Plant response rating, Wheat [5, 18]: 0
Plant response rating, Barnyardgrass [6, 15]: 0
Plant response rating, Barnyardgrass [6, 16]: 10
Plant response rating, Barnyardgrass [6, 17]: 0
Plant response rating, Barnyardgrass [6, 18]: 30
Plant response rating, Crabgrass, Large [7, 15]: 0
Plant response rating, Crabgrass, Large [7, 16]: 10
Plant response rating, Crabgrass, Large [7, 17]: 0
Plant response rating, Crabgrass, Large [7, 18]: 60
Plant response rating, Pigweed [8, 15]: 0
Plant response rating, Pigweed [8, 16]: 0
Plant response rating, Pigweed [8, 17]: 0
Plant response rating, Pigweed [8, 18]: 0
Plant response rating, Corn (corn (Zea mays); [15]): 0
Plant response rating, Corn (corn (Zea mays); [16]): 20
Plant response rating, Corn (corn (Zea mays); [17]): 0
Plant response rating, Corn (corn (Zea mays); [18]): 0
Plant response rating, Velvetleaf [9, 15]: 0
Plant response rating, Velvetleaf [9, 16]: 0
Plant response rating, Velvetleaf [9, 17]: 0
Plant response rating, Velvetleaf [9, 18]: 0
Plant response rating, Morningglory [10, 15]: 0
Plant response rating, Morningglory [10, 16]: 0
Plant response rating, Morningglory [10, 17]: 0
Plant response rating, Morningglory [10, 18]: 0

From patent publication US20100267561A1, “HERBICIDAL PYRIDAZINONE DERIVATIVES” (priority 2007, published 2010)
